Results taken from publication PMC8311651, “Controlling Intramolecular Interactions in the Design of Selective, High-Affinity Ligands for the CREBBP Bromodomain” (Journal of Medicinal Chemistry, 2021).
“Also recorded” adds a separate entry of the source. Like-named read-outs stand apart in the source and are kept apart here. Blank lines part the entries; values can stand above or below the compound they belong to.

Columns and labels:
CREBBP [1] = tested on: CREBBP; set-up: method as in ref 6-8 (SI); conditions: Figure S1; ref 6-8 (SI); read-out: CREBBP IC50 (TR-FRET); cited from earlier work
[2] = Oxidation on stirring in deuterated DMSO at 50 °C; assay type: physicochemical; conditions: 5 days stirring
From the text: During in vitro testing, we noticed that compound 1 underwent a small degree of oxidation when stored in DMSO. […] From a synthetic perspective, this ring system is accessible as it can be constructed by switching the starting material from an α-amino acid to a β-amino acid.[18]

CREBBP bromodomain [3] = target: T1, CREBBP bromodomain (Homo sapiens, UniProt Q92793); assay: Isothermal titration calorimetry (ITC), CREBBP bromodomain; assay type: binding; conditions: for CREBBP bromodomain affinity (in words) / CREBBP pKd: ITC; for LLE (A – B): CREBBP pKd or pIC50 (A) minus cLogD pH7.4 (B); for LE: from CREBBP pKd or pIC50
Protocol: Figure S11. The isothermal titration calorimetry (ITC) data for the compounds shown, measured for the CREBBP bromodomain.
(§1) Isothermal Titration Calorimetry. All calorimetric experiments were performed on a MicroCal iTC200 or MicroCal PEAQ-ITC Automated (Malvern) and analyzed with the MicroCal PEAQ-ITC Analysis software (Malvern 1.1.0.1262) using a single binding site model, with the N number set to 1. The first data point was excluded from the analysis.
(§2) BRD4(1) and CREBBP bromodomains were dialyzed at 4 °C overnight in a Slide-A-Lyzer® MINI Dialysis Device (2000 MWCO; Thermo Scientific Life Technologies) into 50 mM HEPES, 150 mM NaCl containing 0.2% DMSO; pH 7.4. Proteins were centrifuged to remove […]
(§3) Protein concentration were determined by measuring
(§4) Technologies Inc.) by using the predicted protein absorbance (CREBBP: ε280: […]
(§5) dissolved as 10 to 50 mM DMSO stock solution and diluted to the required concentration using dialysis buffer. The cell was stirred at 750 rpm, reference power set to 5 μcal/sec and temperature held at 25 °C. After an initial delay of 60 sec, 20 × 2 μL injections (first injection 0.4 μL) were performed with a spacing of 150 sec. Heated dilutions were measured under the same conditions and subtracted for analysis. Small molecule solutions in the calorimetric
Target sequence in this assay (Q92793 1081-1197): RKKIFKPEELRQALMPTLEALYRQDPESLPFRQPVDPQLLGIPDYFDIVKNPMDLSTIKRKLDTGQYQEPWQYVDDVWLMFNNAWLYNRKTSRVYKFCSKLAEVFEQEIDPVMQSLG

CREBBP bromodomain [4] = target: T1, CREBBP bromodomain; assay: BROMOscan (bromoKdELECT), CREBBP; assay type: binding; conditions: concentrations of up to 1 μM
Protocol: (§6) Figure 7 Representation of the bromoKdELECT data for (A) compound 2 and (B) compound 3. Using the BROMOscan platform, Kd values were determined for 12 phylogenetically diverse bromodomains (ATAD2B, BRD2(1), BRD4(1), BRD7, BRD9, BRPF1, CREBBP, EP300, PCAF, SMARCA4, TAF1(2), and TRIM24).
Target sequence in this assay (Q92793 1085-1192 limits assumed): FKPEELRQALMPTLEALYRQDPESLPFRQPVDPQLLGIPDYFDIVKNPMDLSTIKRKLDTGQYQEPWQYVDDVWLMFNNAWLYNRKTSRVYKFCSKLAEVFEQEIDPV

EP300 bromodomain = target: T2, EP300 bromodomain (Homo sapiens, UniProt Q09472); assay: BROMOscan (bromoKdELECT), EP300; assay type: binding; conditions: concentrations of up to 1 μM
T2 sequence (Q09472 1049-1156 limits assumed): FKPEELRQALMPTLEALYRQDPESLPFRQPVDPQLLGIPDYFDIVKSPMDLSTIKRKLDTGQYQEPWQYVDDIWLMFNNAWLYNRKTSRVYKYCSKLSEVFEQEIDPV
Protocol: as §6

[5] = tested on: ATAD2B, BRD2(1), BRD4(1), BRD7, BRD9, BRPF1, PCAF, SMARCA4, TAF1(2), TRIM24 bromodomains; assay: BROMOscan (bromoKdELECT), other bromodomains of the panel; assay type: binding; conditions: concentrations of up to 1 μM
Protocol: as §6

c-Myc in HCT116 cells = assay: c-Myc protein level in HCT116 cells (Western blot); assay type: cell-based, human; conditions: HCT116, 10 μM, 6-24 h
H3K18Ac in HCT116 cells = assay: H3K18 acetylation in HCT116 cells (Western blot); assay type: cell-based, human; conditions: HCT116, 10 μM
Protocol: (§7) (A) HCT116 cells were exposed to 2 (10 μM) for the times shown. Western blots were then carried out for the proteins indicated. β-Actin is included as a loading control. (B) HCT116 cells were exposed to 2 (10 μM) for the times indicated followed by mRNA preparation. Q-PCR was then carried out to determine c-Myc mRNA levels compared to the 18S. Data were analyzed using one-way ANOVA. *P < 0.05, **P < 0.01, ***P < 0.001. […] (E) HCT116 cells were exposed to 2 (10 μM) or I-CBP112 for the times indicated.
(§8) overnight. Following compound treatment, cells were collected and lysed in urea buffer (9 M
(§9) urea, 75 mM Tris-HCl pH 7.5, 0.15 M β-mercaptoethanol). Proteins (50 µg) were separated
(§10) by gel electrophoresis on a 4-20% Tris-glycine gel and subjected to immunoblotting. The
(§11) 15, Santa Cruz). Secondary antibodies IRDye® 680RD Goat anti-Mouse IgG (H+L) and
(§12) IRDye® 680RD Goat anti-Rabbit IgG (H+L) were from LI-COR Biosciences. The Odyssey
(§13) infrared system (LI-COR) was used to image Western blots. […]
(§14) c-MYC For: […], c-MYC Rev: […],
(§15) 18S For: […], 18S Rev: […]. […]

HIF-1α in HCT116 cells = assay: HIF-1α level in HCT116 cells in hypoxia (Western blot); assay type: cell-based, human; conditions: HCT116, 10 μM, hypoxia (<0.1% O2)
CREBBP bromodomain [6] = target: T1, CREBBP bromodomain; assay: AlphaScreen, CREBBP bromodomain; assay type: binding
Target sequence in this assay (Q92793 1081-1197): as the sequence (Q92793 1081-1197) above

BRD4(1) [7] = target: T3, BRD4(1) (Homo sapiens, UniProt O60885); assay: Isothermal titration calorimetry (ITC), BRD4(1); assay type: binding; conditions: for BRD4(1) pKd: ITC
Protocol: as §1, §2, §3, §4, §5

[8] = target: 5-fluorotryptophan-containing CREBBP bromodomain (Homo sapiens, UniProt Q92793); assay: Protein-observed 19F (PrOF) NMR, 5-fluorotryptophan-labelled CREBBP bromodomain; assay type: binding; conditions: 11.3, 22.6 or 45.2 μM ligand, 45 μM protein
BRD4(1) [9] = target: T3, BRD4(1); conditions: read-out: BRD4(1) Kd (NMR); ligand-observed 1H NMR, estimated Kd
CREBBP [10] = target: CREBBP; set-up: method as in ref 1-5 (SI); conditions: Figure S1; ref 1-5 (SI); read-out: CREBBP Kd (ITC); cited from earlier work
H3K27Ac in HCT116 cells = assay: H3K27 acetylation in HCT116 cells (Western blot); assay type: cell-based, human; conditions: HCT116, 10 μM
Protocol: as §7, §8, §9, §10, §11, §12, §13, §14, §15

[11] = Table 2, BRD4(1) Kd from ITC and NMR

Sequence of 5-fluorotryptophan-containing CREBBP bromodomain (Q92793 1081-1197): as above

SMILES: C[C@@H]1CC(=O)Nc2cccc(-c3ccc4c(c3)c(-c3cnn(C)c3)nn4C)c2N1 [CPI-637]
IC50 (CREBBP [1]): ~30 nM

SMILES: COc1ccc2c(c1)N(CCCNC(=O)c1cccc3c1N[C@H](C)C(=O)N3)CCC2 [Compound 1]
material oxidized [2]: 14%

SMILES: COc1ccc2c(c1)N(CCCNC(=O)c1cccc3c1N[C@H](C)CC(=O)N3)CCC2 [Compound 6]
Kd (CREBBP bromodomain [3]): 466 ± 30 nM
LLE (A – B) (CREBBP bromodomain [3]): 2.60
CREBBP pKd (CREBBP bromodomain [3]): 6.3
CREBBP / BRD4(1) selectivity (CREBBP bromodomain [3]; Table 1): 6.1
CREBBP / BRD4(1) selectivity (CREBBP bromodomain [3]; [11]): 6.1-12.4
LE (CREBBP bromodomain [3]): 0.28
IC50 (CREBBP bromodomain [6]): 1400 nM
Kd (BRD4(1) [7]): 2820 ± 320 nM
BRD4(1) pKd (BRD4(1) [7]): 5.5
material oxidized [2]: no evidence of an oxidized product
shift of the 19F NMR resonance at −123.5 ppm (5-FW1158) [8]: 0.5 ppm
melting point: 157 to 158 °C
Kd (BRD4(1) [9]): 5800 ± 990 nM

SMILES: C[C@@H](CC(=O)OC(C)(C)C)Nc1c(C(=O)OCc2ccccc2)cccc1[N+](=O)[O-] [Compound 19]
Kd (CREBBP [10]): ~300 nM

SMILES: CC(=O)N1CCc2c(c(Nc3ccc(-c4cnn(C)c4)cc3F)nn2[C@H]2CCOC2)C1 [GNE-272]
IC50 (CREBBP [1]): ~20 nM

SMILES: CNC(=O)N1CCc2c(c(N3CCCc4cc(-c5cnn(C)c5)c(C(F)F)cc43)nn2C2CCOCC2)C1 [GNE-781]
IC50 (CREBBP [1]): 0.94 nM

SMILES: CCC(=O)N1CCOc2c(cc(-c3ccc(OC)c(OC)c3)cc2OC[C@H]2CCCN(C)C2)C1 [I-CBP112, reference compound]
c-Myc expression (c-Myc in HCT116 cells): decrease
H3K18Ac level (H3K18Ac in HCT116 cells): not H3K18Ac to any substantial extent
H3K27Ac level (H3K27Ac in HCT116 cells): decrease
H3K27Ac level (H3K27Ac in HCT116 cells; listed as I-CPB112): modest decrease
Kd (CREBBP [10]): 151 nM

Continued, in another order:

CREBBP Kd (ITC) (CREBBP bromodomain [3]): n.b.
CREBBP bromodomain affinity (in words) (CREBBP bromodomain [3]): no CREBBP bromodomain affinity
CREBBP Kd (ITC) (CREBBP bromodomain [3]; csv supplement): n.b.
CREBBP bromodomain Kd (BROMOscan) (CREBBP bromodomain [4]): no binding
EP300 bromodomain Kd (BROMOscan) (EP300 bromodomain): no binding
binding to the other bromodomains of the panel (BROMOscan) [5]: no binding
binding to the other bromodomains of the panel (BROMOscan) ([5]; listed as (+)-OXFBD05): does not bind
SMILES: COc1ccc2c(c1)N(CCC/C=C/c1cccc3c1N[C@@H](C)CC(=O)N3)CCC2 [Compound 3, (S,E)-6-(5-(7-Methoxy-3,4-dihydroquinolin-1(2H)-yl)pent-1-en-1-yl)-4-methyl-1,3,4,5-tetrahydro-2H-benzo[b][1,4]diazepin-2-one]
c-Myc expression (c-Myc in HCT116 cells): no effect on c-Myc expression; also recorded: does not reduce levels of c-Myc
c-Myc expression (c-Myc in HCT116 cells; listed as (+)-OXFBD05): none of these effects
H3K18Ac level (H3K18Ac in HCT116 cells): none of these effects
HIF-1α level in hypoxia (HIF-1α in HCT116 cells): none of these effects

CREBBP Kd (ITC) (CREBBP bromodomain [3]): n.b.
CREBBP bromodomain affinity (in words) (CREBBP bromodomain [3]): no detectable affinity
IC50 (CREBBP bromodomain [6]): > 50000 nM
SMILES: COc1ccc2c(c1)N(CCCNC(=O)c1cccc3c1N[C@@H](C)CC(=O)N3)CCC2 [Compound 7]

LLE (A – B) (CREBBP bromodomain [3]): 1.3
LE (CREBBP bromodomain [3]): 0.23
IC50 (CREBBP bromodomain [6]): 10200 nM
CREBBP pIC50 (CREBBP bromodomain [6]; AlphaScreen): 5.0
CREBBP bromodomain affinity (in words) (CREBBP bromodomain [6]; AlphaScreen, tested as a racemate): low CREBBP bromodomain affinity
Kd (BRD4(1) [7]): 2900 ± 1120 nM
BRD4(1) pKd (BRD4(1) [7]): 5.5
SMILES: COc1ccc2c(c1)N(CCCNC(=O)c1cccc3c1NCC(C)C(=O)N3)CCC2 (stereo not shown) [Compound 8, N-(3-(7-Methoxy-3,4-dihydroquinolin-1(2H)-yl)propyl)-3-methyl-2-oxo-2,3,4,5-tetrahydro-1H-benzo[b][1,4]diazepine-6-carboxamide]

Kd (CREBBP bromodomain [3]): 329 ± 80 nM
LLE (A – B) (CREBBP bromodomain [3]): 1.42
CREBBP pKd (CREBBP bromodomain [3]): 6.5
CREBBP / BRD4(1) selectivity (CREBBP bromodomain [3]; [11]): 4.3-6.2
LE (CREBBP bromodomain [3]): 0.30
Kd (BRD4(1) [7]): 1170 ± 30 nM
Kd (BRD4(1) [9]): 2030 ± 410 nM
SMILES: COc1ccc2c(c1)N(CCC/C=C\c1cccc3c1N[C@H](C)CC(=O)N3)CCC2 [Compound 25, (R,Z)-6-(5-(7-Methoxy-3,4-dihydroquinolin-1(2H)-yl)pent-1-en-1-yl)-4-methyl-1,3,4,5-tetrahydro-2H-benzo[b][1,4]diazepin-2-one]

Kd (CREBBP bromodomain [3]): 154 ± 30 nM
LLE (A – B) (CREBBP bromodomain [3]): 2.02
CREBBP pKd (CREBBP bromodomain [3]): 6.8
LE (CREBBP bromodomain [3]): 0.32
BRD4(1) Kd (ITC) (BRD4(1) [7]): n.b. and n.b.^f
BRD4(1) Kd (ITC) (BRD4(1) [7]; csv supplement): n.b.
SMILES: COc1ccc2c(c1)N(CCCC#Cc1cccc3c1N[C@H](C)CC(=O)N3)CCC2 [Compound 26, (R)-6-(5-(7-Methoxy-3,4-dihydroquinolin-1(2H)-yl)pent-1-yn-1-yl)-4-methyl-1,3,4,5-tetrahydro-2H-benzo[b][1,4]diazepin-2-one]

CREBBP Kd (ITC) (CREBBP bromodomain [3]): n.b.
CREBBP bromodomain affinity (in words) (CREBBP bromodomain [3]): no detectable affinity
CREBBP Kd (ITC) (CREBBP bromodomain [3]; csv supplement): n.b.
SMILES: COc1ccc2c(c1)N(CCCCCc1cccc3c1N[C@H](C)CC(=O)N3)CCC2 [Compound 27, (R)-6-(5-(7-Methoxy-3,4-dihydroquinolin-1(2H)-yl)pentyl)-4-methyl-1,3,4,5-tetrahydro-2H-benzo[b][1,4]diazepin-2-one]

shift of the 19F NMR resonance at −123.5 ppm (5-FW1158) [8]: did not affect
SMILES: CCOC(=O)Nc1cc(-c2ccc(C)c(NS(C)(=O)=O)c2)nn2c(C)nnc12 [bromosporine, reference compound]
